# Assay results reported in US7759373B2, “Large conductance calcium-activated K channel opener” (Mitsubishi Tanabe Pharma Corporation, priority 2001, dated 2010).
# Tested on: rhythmic bladder contractions induced by substance P
# Assay: Inhibitory effect on the rhythmic bladder contractions induced by substance P in anesthetized rats
# Assay type: in vivo, rat
# Details: time during which frequency of rhythmic contraction was completely inhibited, 0.25 mg/kg of the compound, substance P infusion
# Protocol: Inhibitory effect on the rhythmic bladder contractions induced by substance P in anesthetized rats
# For the experiments, Sprague-Dawley female rats (9 to 12 weeks old) weighing between 200 to 300 g were used. After urethane anesthetization (subcutaneously administered with a dose of 1.2 g/kg), cannulae were placed in both right and left femoral veins. One intravenous catheter was used for administration of compounds, and the other was for the substance P (0.33 μg/kg/min) infusion. We also cannulated into ureter to pass urine. Polyethylene catheters were inserted into carotid artery for continuous monitoring of arterial blood pressure and heart rate. For continuous infusion, transurethral bladder catheter was inserted into the bladder through the urethra and tied in place by a ligature around the urethral orifice. One end of the catheter was attached to a pressure transducer in order to measure intravesical pressure. The other end of the catheter was used for infusion of saline into the bladder. After stabilization of blood pressure and heart rate and after the bladder was emptied, cystometry was performed by filling the bladder slowly with about 0.6 ml of saline. After about 10 minutes, intravenous infusion of substance P (0.33 μg/kg/min) was started for stabilization of the micturition reflex. Compounds were administered after stable rhythmic bladder contraction was obtained over 15 minutes. All compounds were dissolved or suspended in saline containing 0.5% Tween 80 for intravenous administration (0.1 ml/kg).
# A 100% inhibition time (minute) of the selected compounds of the present invention is shown in the following Table 65 with a rank of A, B or C. These ranges are as mentioned below. A≧20>B≧10>C (minute)
row,SMILES,100% inhibition time range
1,O=C(O)Cc1nc(-c2ccc(F)cc2)oc1-c1cccc(Cl)c1 [Preparation Example 241],C (A≧20>B≧10>C (minute))
2,O=C(O)Cc1nc(-c2ccc(CO)cc2)oc1-c1ccc(Cl)s1 [Preparation Example 436],C (A≧20>B≧10>C (minute))
3,CCc1nc(-c2ccc(C#N)cc2)[nH]c1-c1ccccc1 [Preparation example 27],B (A≧20>B≧10>C (minute))
4,COc1cccc(-c2nc(CC(=O)O)c(-c3cccs3)o2)c1 [Preparation Example 263],C (A≧20>B≧10>C (minute))
5,CC(C)c1ccc(-c2nc(CC(=O)O)c(-c3cccs3)o2)cc1 [Preparation Example 291],C (A≧20>B≧10>C (minute))
6,CN(C)c1ccc(-c2nc(-c3ccc(Cl)s3)c(CC(=O)O)s2)cn1 [Preparation Example 571],A (A≧20>B≧10>C (minute))
7,CN(C)c1ncc(-c2nc(CC(=O)O)c(-c3ccc(Cl)s3)s2)cn1 [Preparation Example 611],B (A≧20>B≧10>C (minute))
8,CC(C)c1ncc(-c2nc(CC(=O)O)c(-c3ccsc3)o2)cn1 [Preparation Example 476],B (A≧20>B≧10>C (minute))
9,O=C(O)Cc1nc(-c2cscn2)oc1-c1ccc(Cl)s1 [Preparation Example 274],B (A≧20>B≧10>C (minute))
10,N#CCCc1nc(-c2ccc(F)cc2)[nH]c1-c1ccsc1 [Preparation example 46],B (A≧20>B≧10>C (minute))
11,O=C(O)Cc1nc(-c2ccc(N3CCSC3)nc2)oc1-c1ccsc1 [Preparation Example 529],B (A≧20>B≧10>C (minute))
12,O=C(O)Cc1nc(-c2ccc3c(c2)CCCO3)oc1-c1ccsc1 [Preparation Example 443],C (A≧20>B≧10>C (minute))
13,CCN(CC)C(=O)Cc1nc(-c2ccc(F)cc2)oc1-c1ccsc1 [Preparation Example 617],B (A≧20>B≧10>C (minute))
14,O=C(O)Cc1nc(-c2ccc3ccccc3n2)oc1-c1ccsc1 [Preparation Example 439],C (A≧20>B≧10>C (minute))
15,COc1ccc(-c2nc(CC(=O)O)c(-c3ccc(Cl)c(F)c3)o2)cc1 [Preparation Example 525],A (A≧20>B≧10>C (minute))
16,CN(C)c1ncc(-c2nc(-c3cccs3)c(CC(=O)O)o2)cn1 [Preparation Example 505],B (A≧20>B≧10>C (minute))
17,"CCc1c(-c2cccnc2)nc(-c2ccc(F)cc2)n1C.Cl.Cl [Preparation example 102, 5-ethyl-2-(4-fluoro-phenyl)-1-methyl-4-(3-pyridyl)imidazole dihydrochloride]",C (A≧20>B≧10>C (minute))
18,OCc1nc(-c2ccc(Cl)cc2)[nH]c1-c1ccccc1 [Preparation Example 176],C (A≧20>B≧10>C (minute))
19,CN(C)c1ncc(-c2nc(-c3ccc(Cl)cc3)c(CC(=O)O)o2)cn1 [Preparation Example 513],C (A≧20>B≧10>C (minute))
20,CCc1nc(-c2ccc(F)cc2)oc1-c1cccnc1 [Preparation Example 532],C (A≧20>B≧10>C (minute))
21,COCc1nc(-c2ccc(C#N)cc2)[nH]c1-c1cccnc1 [Preparation example 125],C (A≧20>B≧10>C (minute))
22,O=C(O)Cc1sc(-c2ccc(F)cc2)nc1-c1ccc(Cl)s1 [Preparation Example 568],A (A≧20>B≧10>C (minute))
23,O=C(O)Cc1nc(-c2ccc(F)cc2)oc1-c1ccccc1 [Preparation Example 153],B (A≧20>B≧10>C (minute))

row,SMILES,100% inhibition time range
1,O=C(O)Cc1sc(-c2ccc(F)cc2)nc1-c1ccc(Cl)cc1 [Preparation Example 573],B (A≧20>B≧10>C (minute))
2,CCOC(=O)Cc1nc(-c2ccc(N(C)C)nc2)oc1-c1cccs1 [Preparation Example 331],A (A≧20>B≧10>C (minute))
3,COc1ccc(-c2nc(-c3ccc(Cl)s3)c(CC(=O)O)s2)cn1 [Preparation Example 591],B (A≧20>B≧10>C (minute))
4,Clc1cc(-c2ncc(-c3cccnc3)[nH]2)cs1 [Preparation example 24],C (A≧20>B≧10>C (minute))
5,"CS(=O)(=O)NC(=O)Cc1nc(-c2ccc(F)cc2)oc1-c1ccsc1.[Na] [Preparation Example 370, N-[2-(4-fluorophenyl)-5-(3-thienyl)oxazol-4-ylacetyl]methanesulfonamide sodium salt]",C (A≧20>B≧10>C (minute))
6,O=C(O)Cc1nc(-c2ccc(C(F)(F)F)cc2)oc1-c1cccs1 [Preparation Example 430],B (A≧20>B≧10>C (minute))
7,O=C(O)Cc1nc(-c2ccc3nccn3c2)oc1-c1ccc(Cl)s1 [Preparation Example 630],C (A≧20>B≧10>C (minute))
8,CC(C(=O)O)c1nc(-c2ccc(F)cc2)oc1-c1ccsc1 (stereo not shown) [Preparation Example 613],C (A≧20>B≧10>C (minute))
9,Cc1ccc2sc(-c3nc(CC(=O)O)c(-c4ccc(Cl)s4)o3)cc2c1 [Preparation Example 450],B (A≧20>B≧10>C (minute))
10,COc1ccc(-c2nc(CC(=O)O)c(-c3ccsc3)o2)cn1 [Preparation Example 369],B (A≧20>B≧10>C (minute))
11,CN(C)c1ccc(-c2nc(-c3ccc(Cl)c(F)c3)c(CC(=O)O)s2)cn1 [Preparation Example 585],C (A≧20>B≧10>C (minute))
12,"CCOC(=O)Cc1nc(-c2ccc(F)cc2)oc1-c1ccccc1 [Preparation Example 296, ethyl 2-(4-fluoro-phenyl)-5-phenyloxazol-4-yl acetate]",C (A≧20>B≧10>C (minute))
13,CN(C)c1ccc(-c2nc(CC(=O)O)c(-c3ccc(Cl)s3)o2)cn1 [Preparation Example 260],A (A≧20>B≧10>C (minute))
14,O=C(O)Cc1nc(-c2ccc(Cl)cc2)oc1-c1ccco1 [Preparation Example 201],C (A≧20>B≧10>C (minute))
15,COc1cc(-c2nc(CC(=O)O)c(-c3ccc(Cl)s3)o2)ccc1O [Preparation Example 289],B (A≧20>B≧10>C (minute))
16,O=C(O)Cc1nc(-c2cc3ccccc3cn2)oc1-c1cccs1 [Preparation Example 276],C (A≧20>B≧10>C (minute))
17,O=C(O)Cc1nc(-c2cc3ccccc3[nH]2)oc1-c1ccc(Cl)s1 [Preparation Example 466],B (A≧20>B≧10>C (minute))
18,COCc1nc(-c2ccc(C#N)cc2)[nH]c1-c1ccccc1 [Preparation example 124],B (A≧20>B≧10>C (minute))
19,CN(C)c1ncc(-c2nc(-c3cccs3)c(CC(=O)O)s2)cn1 [Preparation Example 580],C (A≧20>B≧10>C (minute))
20,CCc1nc(-c2ccc(C)nc2)[nH]c1-c1cncs1 [Preparation example 83],B (A≧20>B≧10>C (minute))
21,O=C(Cc1nc(-c2ccc(F)cc2)oc1-c1ccsc1)Nc1cccnc1 [Preparation Example 376],C (A≧20>B≧10>C (minute))
22,O=C(O)Cc1sc(-c2cc3ccccc3s2)nc1-c1ccc(Cl)s1 [Preparation Example 569],A (A≧20>B≧10>C (minute))
23,Cc1ccccc1-c1nc(CC(=O)O)c(-c2cccs2)o1 [Preparation Example 433],C (A≧20>B≧10>C (minute))
